Where two headings read alike, the source gives them in different places.
Tests used:
[1] = biological target: T1, human D2R/β-arrestin (Homo sapiens (Human), UniProt P14416); experiment: Gi/cAMP agonist assay (Lance Ultra cAMP, forskolin); format: cell-based; details: CHO-K1 cells expressing human D2R/β-arrestin; agonist mode, 2.5 μM forskolin
Experimental: Eu-cAMP tracer solution (10 μl, PerkinElmer, 360 μl of Tracer in 17.64 ml kit buffer) and ULight-anti-cAMP solution (10 μl, 120 μL antibody in 17.88 ml kit buffer) was then added to each well.

[2] = biological target: D2 receptor (Homo sapiens (Human), UniProt P14416); experiment: D2 radioligand binding assay
Sequence of D2 receptor (P14416 whole entry): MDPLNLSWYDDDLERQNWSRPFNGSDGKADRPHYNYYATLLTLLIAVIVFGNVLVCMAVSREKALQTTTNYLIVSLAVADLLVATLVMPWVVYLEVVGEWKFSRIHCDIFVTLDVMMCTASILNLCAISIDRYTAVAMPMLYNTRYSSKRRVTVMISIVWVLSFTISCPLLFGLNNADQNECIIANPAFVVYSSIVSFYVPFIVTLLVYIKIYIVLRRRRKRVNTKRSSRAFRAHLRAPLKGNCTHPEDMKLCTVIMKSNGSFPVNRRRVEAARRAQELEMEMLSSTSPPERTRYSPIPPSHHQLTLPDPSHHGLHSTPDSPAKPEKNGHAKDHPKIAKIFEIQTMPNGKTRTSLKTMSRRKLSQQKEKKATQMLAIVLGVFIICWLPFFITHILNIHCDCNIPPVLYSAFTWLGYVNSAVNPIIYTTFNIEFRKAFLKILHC

[3] = biological target: T1, human D2R/β-arrestin; experiment: cell-based; details: cAMP Antagonist
[4] = biological target: T1, human D2R/β-arrestin; experiment: β-arrestin agonist assay (PathHunter); format: cell-based; details: CHO-K1 cells expressing human D2R/β-arrestin; agonist mode
Experimental: The detection reagent (9.6 μL, Buffer:Emerald II:Galactor-Star in a 19:5:1 ratio, i.e., 14.06 mL:3.7 mL:0.74 mL=18.5 mL) was then added to the agonist plates.

[5] = biological target: T1, human D2R/β-arrestin; details: CHO-K1 cells expressing human D2R/β-arrestin, antagonist mode, quinpirole 130 nM; for IC50: read-out: β-arrestin Antagonist
Experimental: (§1) Cells were prepared for assays by growing cultures for up to 2 weeks (from about 6-20 passages). A vial of frozen cells was thawed in a water bath held at 37° C. The cells were then transferred into a 50 ml tube with 10 ml growth media. The vial was rinsed with growth media and the contents transferred to the 50 ml tube. The 50 ml tube was centrifuged at 1200 rpm for 5 minutes at room temperature. […] When the cells reached about 90% confluence (approximately 3 days between passages), the cells were passaged and used for either the agonist or antagonist assays as described below.
(§2) The cells were prepared for β-arrestin assays as described above. The assays were performed using a PathHunter® β-Arrestin Detecting Kit (DiscoveRX). The cells were grown on 225 mm dishes, then washed once with 1×PBS (Cellgro), followed by digestion with 2.5 ml 1× Detachment reagent (DRX 92-0009) for approximately 2 minutes.

[6] = biological target: T1, human D2R/β-arrestin; details: read-out: cAMP Antagonist; CHO-K1 cells expressing human D2R/β-arrestin; antagonist mode, 2.5 μM forskolin and 2.7 nM quinpirole
[7] = biological target: T1, human D2R/β-arrestin; experiment: cell-based; details: β-arrestin Antagonist
Experimental: as §1, §2

[8] = CHO-K1 cells expressing human D2R/β-arrestin, antagonist mode, 2.5 μM forskolin and 2.7 nM quinpirole
[9] = CHO-K1 cells expressing human D2R/β-arrestin, antagonist mode, quinpirole 130 nM

T1 sequence (P14416 whole entry): as above

Row | SMILES | EC50 [1] [nM] | Ki [2] [nM] | IC50 [3, 8] [nM] | EC50 [4] [nM] | IC50 [5] [nM] | IC50 [6] [nM] | IC50 [7, 9] [nM] | cAMP Agonist [1] | β-arrestin Antagonist [5] | β-arrestin Agonist [4] | IC50 [3] [nM] | IC50 [7] [nM]
1 | CC1(O)CCN(CC2COc3ccccc3O2)CC1 (centres unmarked) [Compound 140, 1-((2,3-dihydrobenzo[b][1,4]dioxin-2-yl)methyl)-4-methylpiperidin-4-ol] | < 100 | 10000 to 30000 | > 30000 | 1000 to 10000 | – | – | 100 to 1000 | – | – | – | – | –
2 | Clc1ccc2c(c1)CC1(CCN(CCOc3ccccc3)C1)O2 (centres unmarked) [Compound 144, 5-chloro-1′-(2-phenoxyethyl)-3H-spiro[benzofuran-2,3′-pyrrolidine]] | > 30000 | 100 to 1000 | 100 to 1000 | > 30000 | – | – | 1000 to 10000 | – | – | – | – | –
3 | CC1(Oc2ccccn2)CCN(CCOc2ccc(C(F)(F)F)cc2)CC1 [Compound 164, 2-((4-methyl-1-(2-(4-(trifluoromethyl)phenoxy)ethyl)piperidin-4-yl)oxy)pyridine] | 100 to 1000 | 10000 to 30000 | > 30000 | > 30000 | – | – | 10000 to 30000 | – | – | – | – | –
4 | CN(C)C(=O)C1(C)CCN(C[C@H]2COc3ccccc3O2)CC1 [Compound 205, (S)-1-((2,3-dihydrobenzo[b][1,4]dioxin-2-yl)methyl)-N,N,4-trimethylpiperidine-4-carboxamide] | < 100 | 100 to 1000 | > 30000 | 100 to 1000 | – | – | 100 to 1000 | – | – | – | – | –
5 | CC1(C(=O)N2CCCC2)CCN(C[C@H]2COc3ccccc3O2)CC1 [Compound 206, (S)-(1-((2,3-dihydrobenzo[b][1,4]dioxin-2-yl)methyl)-4-methylpiperidin-4-yl)(pyrrolidin-1-yl)methanone] | < 100 | 100 to 1000 | > 30000 | < 100 | – | – | < 100 | – | – | – | – | –
6 | CC(=O)NC1(C)CCN(C[C@H]2COc3ccccc3O2)CC1 [Compound 208, (S)—N-(1-((2,3-dihydrobenzo[b][1,4]dioxin-2-yl)methyl)-4-methylpiperidin-4-yl)acetamide] | < 100 | 100 to 1000 | > 30000 | 100 to 1000 | – | – | < 100 | – | – | – | – | –
7 | CC1(NC(=O)C2CC2)CCN(C[C@H]2COc3ccccc3O2)CC1 [Compound 209, (S)—N-(1-((2,3-dihydrobenzo[b][1,4]dioxin-2-yl)methyl)-4-methylpiperidin-4-yl)cyclopropanecarboxamide] | < 100 | 100 to 1000 | > 30000 | > 30000 | – | – | < 100 | – | – | – | – | –
8 | CC(=O)NC1(C)CCN(C[C@H]2COc3ccc(F)cc3O2)CC1 [Compound 210, (S)—N-(1-((7-fluoro-2,3-dihydrobenzo[b][1,4]dioxin-2-yl)methyl)-4-methylpiperidin-4-yl)acetamide] | < 100 | 100 to 1000 | > 30000 | 100 to 1000 | – | – | 100 to 1000 | – | – | – | – | –
9 | CC(=O)NC1(C)CCN(C[C@H]2COc3ccc(Br)cc3O2)CC1 [Compound 211, (S)—N-(1-((7-bromo-2,3-dihydrobenzo[b][1,4]dioxin-2-yl)methyl)-4-methylpiperidin-4-yl)acetamide] | > 30000 | < 100 | < 100 | > 30000 | – | – | < 100 | – | – | – | – | –
10 | CC1(Oc2ccc(C(F)(F)F)cc2)CCN(CCOc2ccccc2)C1 (centres unmarked) [Example 54, 3-methyl-1-(2-phenoxyethyl)-3-(4-(trifluoromethyl)phenoxy)pyrrolidine] | 100 to 1000 | 1000 to 10000 | 10000 to 30000 | > 30000 | – | – | 1000 to 10000 | – | – | – | – | –
11 | CC1(Oc2cccc(C(F)(F)F)c2)CCN(CCOc2ccccc2)C1 (centres unmarked) [Example 55, 3-methyl-1-(2-phenoxyethyl)-3-(3-(trifluoromethyl)phenoxy)pyrrolidine] | < 100 | 1000 to 10000 | > 30000 | > 30000 | – | – | 1000 to 10000 | – | – | – | – | –
12 | CC1(Oc2ccncc2)CCN(CCOc2ccccc2)C1 (centres unmarked) [Example 59, 4-((3-methyl-1-(2-phenoxyethyl)pyrrolidin-3-yl)oxy)pyridine] | < 100 | 1000 to 10000 | > 30000 | 10000 to 30000 | – | – | > 30000 | – | – | – | – | –
13 | CC1(Oc2ccccc2)CCN(CCOc2ccc(C(F)(F)F)cc2)CC1 [Example 68] | < 100 | 100 to 1000 | > 30000 | > 30000 | – | – | > 30000 | – | – | – | – | –
14 | CC1(Oc2ccccc2)CC2CCC(C1)N2CCOc1ccccc1C(F)(F)F (centres unmarked) [Example 78, 3-Methyl-3-phenoxy-8-(2-(2-(trifluoromethyl)phenoxy)ethyl)-8-azabicyclo[3.2.1]octane] | 10000 to 30000 | 100 to 1000 | – | > 30000 | – | – | – | – | – | – | 1000 to 10000 | 100 to 1000
15 | CC1(Oc2ccc(Cl)cc2)CCN(CCOc2ccccc2F)CC1 [Example 86, 4-(4-chlorophenoxy)-1-(2-(2-fluorophenoxy)ethyl)-4-methylpiperidine] | < 100 | < 100 | > 30000 | < 100 | – | – | > 30000 | – | – | – | – | –
16 | CC1(Oc2ccccc2)CCN(CCOc2ccccc2C(F)(F)F)CC1 [Example 91, 4-methyl-4-phenoxy-1-(2-(2-(trifluoromethyl)phenoxy)ethyl)piperidine] | < 100 | 100 to 1000 | > 30000 | > 30000 | – | – | < 100 | – | – | – | – | –
17 | CC1(Oc2ccc(Cl)cc2)CCCN(CCOc2ccccc2)C1 (centres unmarked) [Example 96, 3-(4-chlorophenoxy)-3-methyl-1-(2-phenoxyethyl)piperidine] | > 30000 | 100 to 1000 | < 100 | > 30000 | – | – | 100 to 1000 | – | – | – | – | –
18 | CC1(Oc2ccc(Cl)cc2)CCCN(CCOc2ccc3scnc3c2)C1 (centres unmarked) [Example 99, 5-(2-(3-(4-chlorophenoxy)-3-methylpiperidin-1-yl)ethoxy)benzo[d]thiazole] | > 30000 | 100 to 1000 | < 100 | > 30000 | – | – | 100 to 1000 | – | – | – | – | –
19 | CC1(C(=O)c2ccccc2)CCN(CCOc2ccccc2C(F)(F)F)CC1 [Example 106, (4-Methyl-1-(2-(2-(trifluoromethyl)phenoxy)ethyl)piperidin-4-yl) (phenyl)methanone] | > 30000 | < 100 | < 100 | > 30000 | – | – | 100 to 1000 | – | – | – | – | –
20 | CC1(Oc2ccccc2)CCN(CCOc2ccccc2OC(F)(F)F)CC1 [Example 110, 4-methyl-4-phenoxy-1-(2-(2-(trifluoromethoxy)phenoxy)ethyl) piperidine] | < 100 | < 100 | > 30000 | > 30000 | – | – | 100 to 1000 | – | – | – | – | –
21 | CN(c1ccccc1)C1(C)CCN(CCOc2ccccc2C(F)(F)F)CC1 [Example 112] | 100 to 1000 | 100 to 1000 | – | > 30000 | – | – | – | – | – | – | > 30000 | 100 to 1000

Continued, in another order:

Row | EC50 [1] [nM] | Ki [2] [nM] | IC50 [3, 8] [nM] | EC50 [4] [nM] | IC50 [5] [nM] | IC50 [6] [nM] | IC50 [7, 9] [nM] | cAMP Agonist [1] | β-arrestin Antagonist [5] | β-arrestin Agonist [4] | SMILES | IC50 [3] [nM] | IC50 [7] [nM]
22 | < 100 | 100 to 1000 | 100 to 1000 | > 30000 | 1000 to 10000 | – | – | – | – | – | CC1(C(=O)Nc2ccccc2)CCN(CC2COc3ccccc3O2)CC1 (single isomer, unassigned) [Compound 204b, 1-((2,3-dihydrobenzo[b][1,4]dioxin-2-yl)methyl)-4-methyl-N-phenylpiperidine-4-carboxamide] | – | –
23 | 100 to 1000 | 1000 to 10000 | – | > 30000 | 1000 to 10000 | > 30000 | – | – | – | – | CC1(Oc2ccc(Cl)cc2)CCN(CCOc2ccc3ncsc3c2)C1 (centres unmarked) [Compound 18b] | – | –
24 | < 100 | 10000 to 30000 | – | 1000 to 10000 | > 30000 | > 30000 | – | – | – | – | CC1(Oc2ccncc2)CCN(CCOc2ccccc2)C1 (centres unmarked) [Example 59b] | – | –
25 | > 30000 | < 100 | – | > 30000 | < 100 | < 100 | – | – | – | – | CC1(Oc2ccc(Cl)cc2)CCCN(CCOc2ccccc2F)C1 (centres unmarked) [Example 98a] | – | –
26 | < 100 | 100 to 1000 | – | > 30000 | 100 to 1000 | > 30000 | – | – | – | – | FC(F)(F)c1ccccc1OCCN1CCC2(CC1)CC2c1ccccc1 (centres unmarked) [Example 102a] | – | –
27 | – | – | – | – | – | – | – | B or A | B or A | – | O=C1CCc2ccc(OCCCCN3CCCN(c4cccc(Cl)c4Cl)CC3)nc2N1 [UNC9975, reference compound] | – | –
28 | – | – | – | – | – | – | – | – | B or C | B or C | Clc1cccc(C2CCN(CCCOc3ccc4scnc4c3)CC2)c1Cl [UNC9994, reference compound] | – | –
